Data: ChEMBL document CHEMBL4371037, “5-Substituted-N-pyridazinylbenzamides as potent and selective LRRK2 inhibitors: Improved brain unbound fraction enables efficacy” (Bioorg Med Chem Lett, 2019)

How the values were obtained:
[1] = Lipophilicity, log D of the compound at pH 7.4 by chromatographic method; type: physicochemical; conditions: buffer
[2] = Intrinsic clearance in human liver microsomes; type: ADME, Microsome
[3] = Drug level in naive rat spleen at 5 mg/kg, iv administered as bolus dose followed by 5 ml/kg/hr iv infusion for 4 hrs; type: ADME, organism-based; conditions: read-out: Drug uptake
[4] = Drug level in naive rat blood at 5 mg/kg, iv administered as bolus dose followed by 5 ml/kg/hr iv infusion for 4 hrs; type: ADME, organism-based; conditions: read-out: Drug uptake
[5] = Brain to blood partition coefficient, Kp of the compound in naive rat at 5 mg/kg, iv administered as bolus dose followed by 5 ml/kg/hr iv infusion for 4 hrs; type: ADME, organism-based
[6] = Drug level in naive rat brain at 5 mg/kg, iv administered as bolus dose followed by 5 ml/kg/hr iv infusion for 4 hrs; type: ADME, organism-based; conditions: read-out: Drug uptake
[7] = Unbound brain-to-plasma concentration ratio in naive rat at 5 mg/kg, iv administered as bolus dose followed by 5 ml/kg/hr iv infusion for 4 hrs; type: ADME, organism-based; conditions: read-out: K(p,uu,brain)
[8] = Drug level in naive rat kidney at 5 mg/kg, iv administered as bolus dose followed by 5 ml/kg/hr iv infusion for 4 hrs; type: ADME, organism-based; conditions: read-out: Drug uptake

| chromatographic logD [1] | CLH [2] [mL/min/g] | Compound | further results |
| --- | --- | --- | --- |
| 3 | 1.6 | CN1CCN(c2ccc(OCc3ccccc3)c(C(=O)Nc3ccnnc3)c2)CC1 |  |
| 6.3 |  | O=C(Nc1ccnnc1)c1cc(N2CCCCC2)ccc1OCc1ccccc1 |  |
| 6.1 | 9.8 | O=C(Nc1ccnnc1)c1cc(N2CCCC2)ccc1OCc1ccccc1 |  |
| 3.2 | 0.6 | O=C(Nc1ccnnc1)c1cc(N2CCC(O)CC2)ccc1OCc1ccccc1 |  |
| 5.1 | 9.5 | O=C(Nc1ccnnc1)c1cc(N2CC(F)(F)C2)ccc1OCc1ccccc1 |  |
| 4.1 | 2.1 | O=C(Nc1ccnnc1)c1cc(N2CCOCC2)ccc1OCc1ccccc1 | concentration at 4 h [3]: 1680 ng/g; concentration at 4 h [4]: 1130 ng/mL; Kp at 4 h [5]: 1.44; concentration at 4 h [6]: 1630 ng/g; Kp uu at 4 h [7]: 0.51; concentration at 4 h [8]: 3970 ng/g |
| 4.4 | 11.8 | O=C(Nc1ccnnc1)c1cc(N2CC(F)C2)ccc1OCc1ccccc1 |  |
| 4.5 | 5.5 | N#CC1CCN(c2ccc(OCc3ccccc3)c(C(=O)Nc3ccnnc3)c2)CC1 |  |
| 4.5 | 4.3 | O=C(Nc1ccnnc1)c1cc(N2C[C@H]3COC[C@H]3C2)ccc1OCc1ccccc1 |  |
| 2 |  | CN1CC2(C1)CN(c1ccc(OCc3ccccc3)c(C(=O)Nc3ccnnc3)c1)C2 |  |
| 1.9 | 0.4 | O=C(Nc1ccnnc1)c1cc(N2CCNCC2)ccc1OCc1ccccc1 |  |
| 5.1 | 5.5 | O=C(Nc1ccnnc1)c1cc(N2CCC(F)CC2)ccc1OCc1ccccc1 |  |
| 3.5 | 1 | O=C(Nc1ccnnc1)c1cc(N2CCC(CO)CC2)ccc1OCc1ccccc1 |  |
| 2.2 |  | CN1CC2(CCN(c3ccc(OCc4ccccc4)c(C(=O)Nc4ccnnc4)c3)CC2)C1 |  |

The next lines start with the molecule.

| Compound | chromatographic logD [1] | CLH [2] [mL/min/g] | further results |
| --- | --- | --- | --- |
| O=C(Nc1cccnc1)c1cc(C(F)(F)F)ccc1OCc1ccc(F)cc1 | 6.3 |  |  |
| C[C@@H]1COCCN1c1ccc(OCc2ccccc2)c(C(=O)Nc2ccnnc2)c1 | 4.5 |  |  |
| O=C(Nc1cccc(Cl)c1)c1cc(C(F)(F)F)ccc1OCc1ccccc1 | 8.8 |  |  |
| COCCN1CCN(c2ccc(OCc3ccccc3)c(C(=O)Nc3ccnnc3)c2)CC1 | 3.8 | 1.3 |  |
| O=C(Nc1cccc(F)c1)c1cc(C(F)(F)F)ccc1OCc1ccc(F)cc1 | 8.2 |  |  |
| O=C(Nc1cccnc1)c1cc(C(F)(F)F)ccc1OCc1ccccc1 | 6.3 |  |  |
| CN1CCC(c2ccc(OCc3ccccc3)c(C(=O)Nc3ccnnc3)c2)CC1 | 2.3 |  |  |
| COCCN1CCC(c2ccc(OCc3ccccc3)c(C(=O)Nc3ccnnc3)c2)CC1 | 2.9 | < 0.78 |  |
| N#Cc1cccc(NC(=O)c2cc(C(F)(F)F)ccc2OCc2ccc(F)cc2)c1 | 7.5 |  |  |
| O=C(Nc1ccnnc1)c1cc(C(F)(F)F)ccc1OCc1ccccc1 | 5.4 |  |  |
| O=C(Nc1cccc(Cl)c1)c1cc(C(F)(F)F)ccc1OCc1ccc(F)cc1 | 8.7 |  |  |
| C[C@@H]1CN(c2ccc(OCc3ccccc3)c(C(=O)Nc3ccnnc3)c2)C[C@H](C)O1 | 5.4 | 2.2 |  |
